Test results reported in the supplement of paper PMC10307832.

Columns and labels:
Experiment in all cases: relative viability (nuclei count vs DMSO), 5 days (fraction); higher = more cells survive
[1] = compound: Cc1ccc2nc(NCCN)c3ncc(C)n3c2c1 + CCNC(=O)c1noc(-c2cc(C(C)C)c(O)cc2O)c1-c1ccc(CN2CCOCC2)cc1 [Luminespib] (partner 0.01 µM)
Method in brief: (§1)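 Lung cancer cell lines in 1536-well plates were dosed by pin tool the day after seeding, either with one drug alone or with a fixed anchor-drug dose plus five library-drug doses (not always all listed) in √10 steps. After 5 days, cells were fixed and their nuclei stained in one step (final 0.05% Triton X-100, 1% formaldehyde, 1 ug/ml Hoechst), then counted on 4× images. Relative viability is the nuclei count in treated wells divided by that in vehicle wells. Values are medians of duplicate plates.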

[2] = compound: Cc1ccc2nc(NCCN)c3ncc(C)n3c2c1 + CS(=O)(=O)N1CCN(Cc2cc3nc(-c4cccc5[nH]ncc45)nc(N4CCOCC4)c3s2)CC1 [Pictilisib] (partner 1 µM)
Method in brief: as §1

Salubrinal + OSI-027 = compound: O=C(/C=C/c1ccccc1)NC(NC(=S)Nc1cccc2cccnc12)C(Cl)(Cl)Cl [Salubrinal] + COc1cccc2cc(-c3nc([C@H]4CC[C@H](C(=O)O)CC4)n4ncnc(N)c34)[nH]c12 [OSI-027] (partner 0.5 µM)
Method in brief: as §1

Salubrinal + AZD7762 = compound: O=C(/C=C/c1ccccc1)NC(NC(=S)Nc1cccc2cccnc12)C(Cl)(Cl)Cl [Salubrinal] + NC(=O)Nc1cc(-c2cccc(F)c2)sc1C(=O)N[C@H]1CCCNC1 [AZD7762] (partner 0.2 µM)
Method in brief: as §1

Cell Line	relative viability ([1]; first compound 0.04 µM)	relative viability ([1]; first compound 0.1265 µM)	relative viability ([1]; first compound 0.4 µM)	relative viability ([1]; first compound 1.265 µM)	relative viability ([1]; first compound 4 µM)	relative viability ([2]; first compound 0.04 µM)	relative viability ([2]; first compound 0.1265 µM)	relative viability ([2]; first compound 0.4 µM)	relative viability ([2]; first compound 1.265 µM)	relative viability ([2]; first compound 4 µM)	relative viability (Salubrinal + OSI-027; first compound 0.08 µM)	relative viability (Salubrinal + OSI-027; first compound 0.253 µM)	relative viability (Salubrinal + OSI-027; first compound 0.8 µM)	relative viability (Salubrinal + OSI-027; first compound 2.53 µM)	relative viability (Salubrinal + OSI-027; first compound 8 µM)	relative viability (Salubrinal + AZD7762; first compound 0.08 µM)	relative viability (Salubrinal + AZD7762; first compound 0.253 µM)	relative viability (Salubrinal + AZD7762; first compound 0.8 µM)	relative viability (Salubrinal + AZD7762; first compound 2.53 µM)	relative viability (Salubrinal + AZD7762; first compound 8 µM)
NCI-H2347	1.14	1.3	0.362	0.248	0.356	0.762	0.673	0.59	0.645	0.557	0.289	0.308	0.379	0.349	0.422	0.537	0.82	0.919	0.749	0.744
NCI-H2405	0.841	0.631	0.732	0.563	0.595	0.442	0.443	0.441	0.511	0.396	0.614	0.643	0.664	0.637	0.599	0.872	0.704	0.835	0.813	0.664
NCI-H3122	0.101	0.11	0.0776	0.0857	0.0976	0.646	0.585	0.541	0.735	0.672	1.21	0.885	1.32	1.03	1.07	1.16	0.979	1.07	1.1	1.05
PC-3 [JPC-3]	0.733	0.71	0.672	0.671	0.628	0.758	0.752	0.731	0.725	0.7	0.7	0.538	0.751	0.913	0.729	0.833	0.67	0.923	0.928	0.671
PC-14	0.135	0.114	0.179	0.151	0.18	0.753	0.736	0.757	0.481	0.583	0.966	0.822	0.98	0.798	0.616	0.485	0.422	0.418	0.365	0.367
RERF-LC-KJ	1.13	1.14	1.26	1.17	0.715	0.511	0.433	0.44	0.542	0.501	0.595	0.512	0.58	0.548	0.437	1.05	0.917	1.1	0.999	0.885
